Entries after “also recorded” stand apart in the source; their conditions may differ.
Columns and labels:
Type in all cases: cell-based
[1] = test system: wild-type A. baumannii; test: Checkerboard microdilution assay with PMB, PMBN, novobiocin, novobiocin aglycone
[2] = test system: novobiocin-resistant A. baumannii 19606 gyrB(R150C) point mutant (Novo^R)
[3] = test system: Gram-negative pathogens; test: Checkerboard microdilution assays between polymyxin B and novobiocin (FIG. 1A-1F); conditions: six strains of FIG. 1A-1F, 37° C. for 24 h
Experimental: Checkerboard data are representative of at least three biological replicates.
Checkerboard microdilution assays between polymyxin B and novobiocin were performed in wild-type strains (unless otherwise noted) grown at 37° C. for 24 h. Checkerboard data (FIG. 1A-1F) are representative of at least three biological replicates. The following strains were tested: A) Wild-type Escherichia coli, ATCC 25922; B) Wild-type Enterobacter cloacae; ATCC 13047) Wild-type Klebsiella pneumoniae, ATCC 700721; D) Wild-type Pseudomonas aeruginosa, ATCC 15692 (PAO1); E) Wild-type Acinetobacter baumannii, ATCC 19606; F) novobiocin-resistant Acinetobacter baumannii, ATCC 19606 gyrB(R150C).

[4] = test system: polymyxin-resistant K. pneumoniae (clinical isolate from Brigham and Women's Hospital); conditions: 37° C. for 24 h
Experimental: The effect of novobiocin/polymyxin combination was further assessed in polymyxin-resistant strains using checkerboard microdilution assays. In these assays, polymyxin-resistant strains (E. coli (clinical isolate from Brigham and Women's Hospital); A. baumannii (ATCC: 19606) mutant that is novobiocin and polymyxin-resistant; and K. pneumoniae (clinical isolate from Brigham and Women's Hospital)) were grown at 37° C. for 24 h.

CO[C@@H]1[C@@H](OC(N)=O)[C@@H](O)[C@H](Oc2ccc3c(O)c(NC(=O)c4ccc(O)c(CC=C(C)C)c4)c(=O)oc3c2C)OC1(C)C [Novobiocin, novobiocin]
synergy with PMBN [1]: exhibits synergy
synergy with PMBN ([2]; Novo^R A. baumannii): resistant to the same combination; also recorded: same synergy but at higher [novobiocin]
resistance of gyrB(R150C) point mutant towards novobiocin ([2]; relative to wild type): 300 fold
synergy with polymyxin B [3]: synergizes with polymyxin B to kill Gram-negative pathogens in vitro
synergy with polymyxin B [4]: synergizes with polymyxin B

From patent US11191773B2, “Methods of treatment for bacterial infections” (President and Fellows of Harvard College, priority 2017, dated 2021)
